# Test results from ChEMBL document CHEMBL1615345, “Evaluation of a published in silico model and construction of a novel Bayesian model for predicting phospholipidosis inducing potential” (J Chem Inf Model, 2007).
# System: Phospholipidosis
# 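Also: phospholipidosis status taken from published literature.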
compound,measurement,value
CC(c1cc2ccccc2s1)N(O)C(N)=O (stereo not given) [ZILEUTON],Phospholipidosis,Not Active
NC(=O)NO [HYDROXYUREA],Phospholipidosis,Not Active
CC(=O)Nc1ccc(O)cc1 [ACETAMINOPHEN],Phospholipidosis,Not Active
COc1cc([C@@H]2c3cc4c(cc3[C@@H](O[C@@H]3O[C@@H]5CO[C@@H](C)O[C@H]5[C@H](O)[C@H]3O)[C@H]3COC(=O)[C@H]23)OCO4)cc(OC)c1O [ETOPOSIDE],Phospholipidosis,Not Active
N=C(N)NCCCCCCCCCCNC(=N)N [SYNTHALIN],Phospholipidosis,Not Active
CCN1CC(CCN2CCOCC2)C(c2ccccc2)(c2ccccc2)C1=O (stereo not given) [DOXAPRAM],Phospholipidosis,Not Active
O=C(O)Cc1ccccc1Nc1c(Cl)cccc1Cl [DICLOFENAC],Phospholipidosis,Not Active
CCSCC[C@H](N)C(=O)O [ETHIONINE],Phospholipidosis,Not Active
C#C[C@]1(O)CC[C@H]2[C@@H]3CCc4cc(O)ccc4[C@H]3CC[C@@]21C [ETHINYL ESTRADIOL],Phospholipidosis,Not Active
O=C(O)CCCCCCNC1c2ccccc2CCc2ccccc21 [AMINEPTINE],Phospholipidosis,Not Active
CC(NC(C)(C)C)C(=O)c1cccc(Cl)c1 (stereo not given) [BUPROPION],Phospholipidosis,Not Active
Cn1c(=O)c2c(ncn2C)n(C)c1=O [CAFFEINE],Phospholipidosis,Not Active
CC(=O)Oc1ccccc1C(=O)O [ASPIRIN],Phospholipidosis,Not Active
CCCC(CCC)C(=O)[O-].[Na+] [VALPROATE SODIUM],Phospholipidosis,Not Active
CN(C)C(=N)N=C(N)N [METFORMIN],Phospholipidosis,Not Active
CN1C(C(=O)Nc2ccccn2)=C(O)c2ccccc2S1(=O)=O [PIROXICAM],Phospholipidosis,Not Active
CC(=O)O[C@]1(C(C)=O)CC[C@H]2[C@@H]3C=C(Cl)C4=CC(=O)[C@@H]5C[C@@H]5[C@]4(C)[C@H]3CC[C@@]21C [CYPROTERONE ACETATE],Phospholipidosis,Not Active
S=C=Nc1cccc2ccccc12 [1-NAPHTHYLISOTHIOCYANATE],Phospholipidosis,Not Active
CC(O)(CS(=O)(=O)c1ccc(F)cc1)C(=O)Nc1ccc(C#N)c(C(F)(F)F)c1 (stereo not given) [BICALUTAMIDE],Phospholipidosis,Not Active
CC(=N)S [THIOACETAMIDE],Phospholipidosis,Not Active
Cl.Cl.O=C(CCN1CCN2CCCC2C1)N1c2ccccc2Sc2ccc(Cl)cc21 (stereo not given) [AZACLORZINE HYDROCHLORIDE],Phospholipidosis,Not Active
CNC(=O)Oc1ccc2c(c1)[C@]1(C)CCN(C)[C@@H]1N2C [PHYSOSTIGMINE],Phospholipidosis,Not Active
NN [HYDRAZINE],Phospholipidosis,Not Active
Nc1nc(NC2CC2)c2ncn([C@H]3C=C[C@@H](CO)C3)c2n1 [ABACAVIR],Phospholipidosis,Not Active
CN(C)[C@@H]1C(O)=C(C(N)=O)C(=O)[C@@]2(O)C(O)=C3C(=O)c4c(O)ccc(Cl)c4[C@@](C)(O)[C@H]3C[C@@H]12 [CHLORTETRACYCLINE],Phospholipidosis,Not Active
C[C@H]1c2cccc(O)c2C(=O)C2=C(O)[C@]3(O)C(=O)C(C(N)=O)=C(O)[C@@H](N(C)C)[C@@H]3[C@@H](O)[C@@H]21.O [DOXYCYCLINE],Phospholipidosis,Not Active
N[C@H]1C(O)O[C@H](CO)[C@@H](O)[C@@H]1O (stereo not given in full) [GLUCOSAMINE],Phospholipidosis,Not Active
CN(C)CCN(Cc1cccs1)c1ccccn1,Phospholipidosis,Not Active
CCOC(=O)C(C)(C)Oc1ccc(Cl)cc1 [CLOFIBRATE],Phospholipidosis,Not Active
CC(C)(O/N=C(\C(=O)N[C@@H]1C(=O)N2C(C(=O)[O-])=C(C[n+]3ccccc3)CS[C@H]12)c1csc(N)n1)C(=O)O [CEFTAZIDIME],Phospholipidosis,Not Active
CCN(CC)CCOC(=O)c1ccc(N)cc1 [PROCAINE],Phospholipidosis,Not Active
C[C@](N)(Cc1ccc(O)c(O)c1)C(=O)O [METHYLDOPA],Phospholipidosis,Not Active
CC(C)(Oc1ccc(C2CC2(Cl)Cl)cc1)C(=O)O (stereo not given) [CIPROFIBRATE],Phospholipidosis,Not Active
CCC1(c2ccccc2)C(=O)NC(=O)NC1=O [PHENOBARBITAL],Phospholipidosis,Not Active
O=C1CN(/N=C/c2ccc(-c3ccc([N+](=O)[O-])cc3)o2)C(O)=N1 [DANTROLENE],Phospholipidosis,Not Active
COc1cc2c(c(OC)c1OC)-c1ccc(OC)c(=O)cc1[C@@H](NC(C)=O)CC2 [COLCHICINE],Phospholipidosis,Not Active
NC(=O)N1c2ccccc2C=Cc2ccccc21 [CARBAMAZEPINE],Phospholipidosis,Not Active
CO[C@H]1/C=C/O[C@@]2(C)Oc3c(C)c(O)c4c(O)c(c(/C=N/N5CCN(C)CC5)c(O)c4c3C2=O)NC(=O)/C(C)=C\C=C\[C@H](C)[C@H](O)[C@@H](C)[C@@H](O)[C@@H](C)[C@H](OC(C)=O)[C@@H]1C [RIFAMPIN],Phospholipidosis,Not Active
[N-]=[N+]=CC(=O)OC[C@H](N)C(=O)O [AZASERINE],Phospholipidosis,Not Active
Cc1cn([C@H]2C[C@H](N=[N+]=[N-])[C@@H](CO)O2)c(=O)[nH]c1=O [ZIDOVUDINE],Phospholipidosis,Not Active
CN(C)[C@@H]1C(O)=C(C(N)=O)C(=O)[C@@]2(O)C(O)=C3C(=O)c4c(O)ccc(Cl)c4[C@@H](O)[C@H]3C[C@@H]12 [DEMECLOCYCLINE],Phospholipidosis,Not Active
CC1=C(CC(=O)O)c2cc(F)ccc2/C1=C\c1ccc([S+](C)[O-])cc1 (stereo not given),Phospholipidosis,Not Active
Cc1ccc(C)c(OCCCC(C)(C)C(=O)O)c1 [GEMFIBROZIL],Phospholipidosis,Not Active
NC(N)=Nc1nc(CSCCC(N)=NS(N)(=O)=O)cs1 [FAMOTIDINE],Phospholipidosis,Not Active
Cn1nnc2c(C(N)=O)ncn2c1=O [TEMOZOLOMIDE],Phospholipidosis,Not Active
CC(=O)N(O)CCCCCNC(=O)CCC(=O)N(O)CCCCCNC(=O)CCC(=O)N(O)CCCCCN [DEFEROXAMINE],Phospholipidosis,Not Active
NC(=O)OCC(COC(N)=O)c1ccccc1 [FELBAMATE],Phospholipidosis,Not Active
Nc1c2c(nc3ccccc13)CCCC2 [TACRINE],Phospholipidosis,Not Active
O=C(O)c1cc(-c2ccc(F)cc2F)ccc1O [DIFLUNISAL],Phospholipidosis,Not Active
CN(C)[C@@H]1C(O)=C(C(=O)NCN2CCCC2)C(=O)[C@@]2(O)C(O)=C3C(=O)c4c(O)cccc4[C@@](C)(O)[C@H]3C[C@@H]12 [ROLITETRACYCLINE],Phospholipidosis,Not Active
ClC(Cl)Cl [CHLOROFORM],Phospholipidosis,Not Active
CN(Cc1cnc2nc(N)nc(N)c2n1)c1ccc(C(=O)N[C@@H](CCC(=O)O)C(=O)O)cc1 [METHOTREXATE],Phospholipidosis,Not Active
CCC(=O)C(CC(C)N(C)C)(c1ccccc1)c1ccccc1 (stereo not given) [METHADONE],Phospholipidosis,Not Active
ClC(Cl)(Cl)Cl [CARBON TETRACHLORIDE],Phospholipidosis,Not Active
C=C1C[C@@H]1C[C@H](N)C(=O)O,Phospholipidosis,Not Active
COc1cc2c(cc1OC)C(=O)C(CC1CCN(Cc3ccccc3)CC1)C2 (stereo not given) [DONEPEZIL],Phospholipidosis,Not Active
Cc1cccc(Nc2cc(Cl)nc(SCC(=O)O)n2)c1C [PIRINIXIC ACID],Phospholipidosis,Not Active
Cc1ccc2cc3c(ccc4ccccc43)c3c2c1CC3 [3-METHYLCHOLANTHRENE],Phospholipidosis,Not Active
CC(C)C(=O)Nc1ccc([N+](=O)[O-])c(C(F)(F)F)c1 [FLUTAMIDE],Phospholipidosis,Not Active
CC(C)OC(=O)C(C)(C)Oc1ccc(C(=O)c2ccc(Cl)cc2)cc1 [FENOFIBRATE],Phospholipidosis,Not Active
